Data on one sequence can be found in article PMC5050486 (Scientific Reports, 2016).

The term inhibition denotes the change of the read-out against control, counted positive when it falls.

The test system of assay [1] is LF-PA63 treated RAW264.7 cells. It counts as cell-based, mouse.
In another assay the target is cathepsin B (Homo sapiens, UniProt P07858). The experiment in a line: Host protease FRET test, cathepsin B. The note with it: 33 μM drug, N/I = no FRET inhibition, read-out: Percent Inhibition with 33 μM of drug, Cath B. It counts as biochemical.
Assay [2] has as its system LF-PA treated mouse macrophage RAW264.7 cells. It counts as cell-based.
Assay [3] relates to Pseudomonas aeruginosa exotoxin A treated RAW264.7 cells. The class given is cell-based, mouse.
In a further assay the target is anthrax LF (Bacillus anthracis, UniProt P15917). As to the kind of experiment: biochemical. The note with it: read-out: Percent Inhibition with 33 μM of drug, LF.
A further assay has as its target T1, caspase-3 (Homo sapiens, UniProt P42574).
T1 construct: purchased BioVision
T1 sequence (P42574 29-277): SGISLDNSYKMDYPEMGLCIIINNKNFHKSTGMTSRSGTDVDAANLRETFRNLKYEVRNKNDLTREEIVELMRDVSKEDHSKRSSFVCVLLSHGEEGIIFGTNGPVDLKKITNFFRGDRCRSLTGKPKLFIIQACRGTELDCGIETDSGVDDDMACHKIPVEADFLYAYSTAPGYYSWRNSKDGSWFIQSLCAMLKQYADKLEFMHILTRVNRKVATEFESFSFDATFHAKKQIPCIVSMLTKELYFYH
The experiment in a line: Host protease FRET test, caspase-3. Particulars: 33 μM drug, FRET; N/I = no FRET inhibition; read-out: Percent Inhibition with 33 μM of drug, Casp 3. It counts as biochemical.

Assay [4] concerns Cholera toxin treated RAW264.7 cells. It counts as cell-based, mouse.
A further assay deals with T2, human furin (Homo sapiens, UniProt P09958).
T2 construct: purchased New England Biolabs
The experiment in a line: Host protease FRET test, furin. It counts as biochemical. Particulars: 33 μM drug, FRET; N/I = no FRET inhibition; read-out: Percent Inhibition with 33 μM of drug, Furin.

Entries after “also recorded” stand apart in the source; their conditions may differ. Where no end group is shown, it is not given here.

Chain of anthrax LF (P15917 34-809 limits assumed): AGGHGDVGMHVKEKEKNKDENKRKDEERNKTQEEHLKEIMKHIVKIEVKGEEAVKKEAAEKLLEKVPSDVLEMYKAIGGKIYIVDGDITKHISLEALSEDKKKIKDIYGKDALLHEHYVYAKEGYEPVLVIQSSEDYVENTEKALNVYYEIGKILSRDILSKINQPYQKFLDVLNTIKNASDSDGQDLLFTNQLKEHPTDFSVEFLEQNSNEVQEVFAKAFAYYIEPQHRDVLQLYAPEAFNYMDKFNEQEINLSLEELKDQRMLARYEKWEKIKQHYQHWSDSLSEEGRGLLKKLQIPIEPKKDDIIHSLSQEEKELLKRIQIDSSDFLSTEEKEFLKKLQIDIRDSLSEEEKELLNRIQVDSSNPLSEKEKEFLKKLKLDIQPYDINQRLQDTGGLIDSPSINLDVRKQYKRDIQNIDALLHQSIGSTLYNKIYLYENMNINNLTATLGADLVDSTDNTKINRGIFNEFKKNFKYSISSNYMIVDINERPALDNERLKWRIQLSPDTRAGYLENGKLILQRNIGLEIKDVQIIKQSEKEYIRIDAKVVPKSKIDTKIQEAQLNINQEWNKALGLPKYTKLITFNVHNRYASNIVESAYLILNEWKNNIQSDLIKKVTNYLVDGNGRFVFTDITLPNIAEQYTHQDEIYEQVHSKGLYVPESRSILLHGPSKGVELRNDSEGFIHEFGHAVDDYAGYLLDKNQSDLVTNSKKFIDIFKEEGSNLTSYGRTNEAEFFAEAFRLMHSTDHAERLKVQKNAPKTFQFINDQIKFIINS
T2 sequence (P09958 108-794): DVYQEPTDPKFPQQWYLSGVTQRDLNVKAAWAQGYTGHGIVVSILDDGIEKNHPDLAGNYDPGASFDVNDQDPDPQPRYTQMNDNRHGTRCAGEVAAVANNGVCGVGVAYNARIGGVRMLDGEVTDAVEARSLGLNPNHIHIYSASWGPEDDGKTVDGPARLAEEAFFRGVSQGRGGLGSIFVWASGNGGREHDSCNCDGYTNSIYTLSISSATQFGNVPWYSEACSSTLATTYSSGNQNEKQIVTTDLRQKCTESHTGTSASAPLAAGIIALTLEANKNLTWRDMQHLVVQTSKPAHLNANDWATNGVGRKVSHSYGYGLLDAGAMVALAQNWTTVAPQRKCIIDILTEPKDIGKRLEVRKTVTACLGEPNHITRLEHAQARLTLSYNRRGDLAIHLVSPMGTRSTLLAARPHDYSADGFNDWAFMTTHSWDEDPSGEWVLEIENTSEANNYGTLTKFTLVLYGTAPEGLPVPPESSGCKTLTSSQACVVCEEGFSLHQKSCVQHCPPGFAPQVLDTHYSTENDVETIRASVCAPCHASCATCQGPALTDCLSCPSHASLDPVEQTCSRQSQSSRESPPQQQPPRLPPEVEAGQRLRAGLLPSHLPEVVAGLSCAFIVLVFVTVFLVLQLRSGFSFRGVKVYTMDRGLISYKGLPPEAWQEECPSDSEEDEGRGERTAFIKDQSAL

For the sequence “MPRRRRSSSRPVRRRRRPRVSRRRRRRGGRRRR [Salmon Sperm Protamine]”, the “Protection against cell death induced by LF and PA63” value in assay [1] is “reduces cellular sensitivity; also recorded: effectively protected all cells”. Besides, the inhibition at 33 µM at cathepsin B is 65 ± 0.5%; on anthrax LF, 107 ± 1.4%; on caspase-3 it was 87 ± 2.8%; on human furin, 96 ± 1.2%. Further, the “Protection against LF-PA mediated cell killing” value in assay [2] is on record as “complete protection”. In addition, the “Protection against PE-mediated cell killing” value in assay [3] was “substantial protection”. For the same sequence, the “Protection against CT-mediated cell killing” value in assay [4] is “substantial protection”.
